Converted amounts (≈) assume the structure as drawn.
Tests used:
Assay type in all cases: functional
Aspergillus fumigatus [1] = assay: Antifungal activity against Aspergillus fumigatus assessed as reduction in fungal cell growth incubated for 48 hrs by broth microdilution method
Candida albicans [2] = assay: Antifungal activity against Candida albicans assessed as reduction in fungal cell growth incubated for 24 and 72 hrs by cup plate method
Candida albicans [3] = assay: Antifungal activity against Candida albicans V-01-191A-261 assessed as reduction in fungal cell growth incubated for 48 hrs by broth microdilution method; details: V-01-191A-261, 48 h
Aspergillus flavus [4] = assay: Antifungal activity against Aspergillus flavus assessed as inhibition zone at 20 ug/ml by disk diffusion method; details: read-out: IZ
Cryptococcus neoformans = assay: Antifungal activity against Cryptococcus neoformans LA314 assessed as reduction in fungal cell growth incubated for 48 hrs by broth microdilution method; details: LA314, 48 h
Aspergillus niger [5] = assay: Antifungal activity against Aspergillus niger assessed as reduction in fungal cell growth incubated for 48 hrs by broth microdilution susceptibility method
Candida tropicalis [6] = assay: Antifungal activity against Candida tropicalis assessed as reduction in fungal cell growth incubated for 24 hrs by broth microdilution method
Candida albicans [7] = assay: Antifungal activity against Candida albicans assessed as inhibition zone at 20 ug/ml by disk diffusion method; details: read-out: IZ
Aspergillus fumigatus [8] = assay: Antifungal activity against Aspergillus fumigatus assessed as inhibition zone at 20 ug/ml by disk diffusion method; details: read-out: IZ
Nakaseomyces glabratus [9] = assay: Antifungal activity against Candida glabrata assessed as reduction in fungal cell growth incubated for 48 hrs by broth microdilution method
Aspergillus niger [10] = assay: Antifungal activity against Aspergillus niger assessed as reduction in fungal cell growth incubated for 72 hrs by broth microdilution method
Aspergillus flavus [11] = assay: Antifungal activity against Aspergillus flavus assessed as reduction in fungal cell growth incubated for 24 and 72 hrs by cup plate method
Candida albicans [12] = assay: In vivo antifungal activity against Candida albicans TA infected in CDF-1 mouse dosed orally assessed as survival of mouse; details: po
Candida albicans [13] = assay: Antifungal activity against Candida albicans assessed as inhibition zone at 100 ug/ml; details: read-out: IZ
Candida albicans [14] = assay: Antifungal activity against Candida albicans assessed as reduction in fungal cell growth incubated for 24 hrs by broth microdilution method
Candida tropicalis [15] = assay: Antifungal activity against Candida tropicalis assessed as reduction in fungal cell growth incubated for 48 hrs by broth microdilution method
Pichia kudriavzevii [16] = assay: Antifungal activity against Candida krusei assessed as reduction in fungal cell growth incubated for 48 hrs by broth microdilution method
Candida albicans [17] = assay: Antifungal activity against Candida albicans assessed as inhibition zone at 125 ug/ml by disk diffusion method; details: read-out: IZ
Candida albicans [18] = assay: Antifungal activity against Candida albicans TA
Pichia kudriavzevii [19] = assay: Antifungal activity against Candida krusei assessed as reduction in fungal cell growth incubated for 24 hrs by broth microdilution method
Nakaseomyces glabratus [20] = assay: Antifungal activity against Candida glabrata assessed as reduction in fungal cell growth incubated for 24 hrs by broth microdilution method
Candida parapsilosis = assay: Antifungal activity against Candida parapsilosis ATCC 22019 assessed as reduction in fungal cell growth incubated for 48 hrs by broth microdilution method; details: Lodderomyces parapsilosis, ATCC 22019, 48 h
Aspergillus niger [21] = assay: Antifungal activity against Aspergillus niger assessed as reduction in fungal cell growth incubated for 48 hrs by broth microdilution method
Aspergillus niger [22] = assay: Antifungal activity against Aspergillus niger assessed as inhibition zone at 100 ug/ml; details: read-out: IZ
Aspergillus niger [23] = assay: Antifungal activity against Aspergillus niger assessed as inhibition zone at 20 ug/ml by disk diffusion method; details: read-out: IZ
Candida albicans [24] = assay: Antifungal activity against Candida albicans assessed as reduction in fungal cell growth incubated for 48 hrs by broth microdilution susceptibility method
Staphylococcus aureus [25] = assay: Antifungal activity against methicillin-resistant Staphylococcus aureus after 24 hrs by broth microdilution assay
Staphylococcus aureus [26] = assay: Potency index, ratio for MIC of methicillin to MIC of compound for […] incubated for 24 hrs by broth microdilution method

OC(Cn1cncn1)(Cn1cncn1)c1ccc(F)cc1F [FLUCONAZOLE]
MIC (Aspergillus fumigatus [1]): 2.5 µg/mL (≈ 8.16 µM) | MIC (Candida albicans [2]): 25 µg/mL (≈ 81.6 µM) | MIC (Candida albicans [3]): 2 to 8 µg/mL (≈ 6.53 to 26.1 µM) | zone of inhibition at 20 µg/mL (Aspergillus flavus [4]): 19 to 22 mm | MIC (Cryptococcus neoformans): 2 to 8 µg/mL (≈ 6.53 to 26.1 µM) | MIC (Aspergillus niger [5]): 6.25 µg/mL (≈ 20.4 µM) | MIC (Candida tropicalis [6]): 1 to 4 µg/mL (≈ 3.27 to 13.1 µM) | zone of inhibition at 20 µg/mL (Candida albicans [7]): 19 to 22 mm | zone of inhibition at 20 µg/mL (Aspergillus fumigatus [8]): 19 to 22 mm | MIC (Nakaseomyces glabratus [9]): 2 to 8 µg/mL (≈ 6.53 to 26.1 µM) | MIC (Aspergillus niger [10]): 2 to 8 µg/mL (≈ 6.53 to 26.1 µM) | MIC (Aspergillus flavus [11]): 25 µg/mL (≈ 81.6 µM) | ED50 (Candida albicans [12]): 0.29 to 0.35 mg/kg | zone of inhibition at 100 µg/mL (Candida albicans [13]): 22 to 25 mm | MIC (Candida albicans [14]): 1 to 4 µg/mL (≈ 3.27 to 13.1 µM) | MIC (Candida tropicalis [15]): 2 to 8 µg/mL (≈ 6.53 to 26.1 µM) | MIC (Pichia kudriavzevii [16]): 2 to 8 µg/mL (≈ 6.53 to 26.1 µM) | zone of inhibition at 125 µg/mL (Candida albicans [17]): 14 mm | MIC (Candida albicans [18]): 100 µg/mL (≈ 327 µM) | MIC (Pichia kudriavzevii [19]): 1 to 4 µg/mL (≈ 3.27 to 13.1 µM) | MIC (Nakaseomyces glabratus [20]): 1 to 4 µg/mL (≈ 3.27 to 13.1 µM) | MIC (Candida parapsilosis): 2 to 8 µg/mL (≈ 6.53 to 26.1 µM) | MIC (Aspergillus niger [21]): 0.625 to 6.25 µg/mL (≈ 2.04 to 20.4 µM) | zone of inhibition at 100 µg/mL (Aspergillus niger [22]): 22 to 25 mm | zone of inhibition at 20 µg/mL (Aspergillus niger [23]): 19 to 22 mm | MIC (Candida albicans [24]): 6.25 µg/mL (≈ 20.4 µM)

COc1cccc(OC)c1C(=O)N[C@@H]1C(=O)N2[C@@H]1SC(C)(C)[C@@H]2C(=O)O [METHICILLIN]
MIC (Staphylococcus aureus [25]): > 250 µg/mL

FC(F)(F)c1cc(-c2ccc(I)cc2)nc2nnnn12
Ratio (Staphylococcus aureus [26]): >64 | MIC (Candida albicans [14]): 62.5 µg/mL (≈ 160 µM)

From ChEMBL document CHEMBL4393657, “Tetrazole hybrids and their antifungal activities” (2019)
